The values below are quoted from earlier work in patent US9968555B2, “Liposomal formulations that form drug nanocrystals after freeze-thaw” (ARADIGM CORPORATION, priority 2014, dated 2018).

Values after ≈ are worked out from the molar mass of the structure shown.

This data set relates to M. avium.

Consider `O=C(O)c1cn(C2CC2)c2cc(N3CCNCC3)c(F)cc2c1=O` [ciprofloxacin], for which the “minimum inhibitory concentration (MIC)” value was 5 mg/L (≈ 15.1 µM).
